Key:
[1] = system: SV40-Luc; assay: SV40-Luc control luciferase reporter assay, SV 5A8 cell line (SV40-Luc and SV40-R-Luc), control for non-specific inhibitors; type: cell-based, human; conditions: Homo sapiens, SV5A8, 24 h, SV 5A8 cells derived from SW480; 24 hours of incubation with compound; ratio Firefly/Renilla luciferase
Outline: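 Cells were plated and, 20-24 hours later, treated with titrated compound (0.316% DMSO final). After 24 hours they were lysed or given Dual-Glo reagent, and firefly then Renilla luminescence was measured. IC50s came from firefly/Renilla ratios as % of control.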

[2] = system: β-catenin/Tcf-4; assay: cells; type: cell-based; conditions: Homo sapiens, 24 hours of incubation with compound, ratio Firefly/Renilla luciferase
Outline: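 SW480-derived lines with integrated reporters (Tcf-4-driven firefly luciferase; SV40 firefly as specificity control; SV40 Renilla for cell number/toxicity), treated 24 hours with titrated compounds, final 0.316% DMSO. Dual-luciferase read-out; firefly/Renilla ratio as % of control, duplicate plates, IC50 (nM) from curve fit.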

[3] = SW480, 24 h, Tcf 33.13 cells derived from SW480
[4] = Tcf22C11, 24 h, Tcf 22C11 cells derived from SW480

Compound | IC50 [1] | melting point | IC50 [2, 3] | IC50 [2, 4]
Cc1ccc2c(NCc3ccc(NC(=O)C4CCN(Cc5ccc(F)c(F)c5)CC4)cc3)nc(N(C)C)nc2c1 [Example 255, 1-(3,4-difluorobenzyl)-N-[4-({[2-(dimethylamino)-7-methylquinazolin-4-yl]amino}methyl)phenyl]piperidine-4-carboxamide] | > 2300 nM | 97 to 99 °C | 106 nM | 196 nM
CC(=O)c1ccc2c(NCc3ccc(NC(=O)c4ccc(F)cc4)cc3)nc(N(C)C)nc2c1 [Example 94, N-[4-({[7-acetyl-2-(dimethylamino)quinazolin-4-yl]amino}methyl)phenyl]-4-fluorobenzamide] | > 20200 nM | 195 °C |  | 
Cc1ccc2c(NCc3ccc(NC(=O)c4ccc(Cl)cc4)cc3)nc(N3CCCCCC3)nc2c1 [Example 198, N-(4-{[(2-azepan-1-yl-7-methylquinazolin-4-yl)amino]methyl}phenyl)-4-chlorobenzamide] | > 2500 nM | 192 to 194 °C | 253 nM | 346 nM
CCNc1nc(NCc2ccc(NC(=O)C3CCN(Cc4ccccc4)CC3)cc2)c2ccc(C)cc2n1 [Example 132, 1-benzyl-N-[4-({[2-(ethylamino)-7-methylquinazolin-4-yl]amino}methyl)phenyl]piperidine-4-carboxamide] | > 2150 nM | 55 °C | 1140 nM | 1390 nM
CNc1nc(NCc2ccc(NC(=O)c3ccc(Br)cc3)cc2)c2ccc(C)cc2n1 [Example 238, 4-bromo-N-[4-({[7-methyl-2-(methylamino)quinazolin-4-yl]amino}methyl)phenyl]benzamide] | > 1310 nM | 295 to 298 °C | 255 nM | 284 nM
Cc1ccc2c(NCc3ccc(NC(=O)c4ccc(F)cc4)cc3)nc(N3CCCCCC3)nc2c1 [Example 235, N-(4-{[(2-azepan-1-yl-7-methylquinazolin-4-yl)amino]methyl}phenyl)-4-fluorobenzamide] | > 5170 nM | 135 to 139 °C | 448 nM | 451 nM
C/C=C/c1ccc2c(NCc3ccc(NC(=O)C4CCN(Cc5ccccc5)CC4)cc3)nc(N(C)C)nc2c1 [Example 151, 1-benzyl-N-{4-[({2-(dimethylamino)-7-[(1E)-prop-1-en-1-yl]quinazolin-4-yl}amino)methyl]phenyl}-piperidine-4-carboxamide] | > 2530 nM | 154 °C | 726 nM | 606 nM
CNc1nc(NCc2ccc(NC(=O)c3ccc(Cl)nc3)cc2)c2cc([N+](=O)[O-])ccc2n1 [Example 184, 6-chloro-N-[4-({[2-(methylamino)-6-nitroquinazolin-4-yl]amino}methyl)phenyl]nicotinamide] | > 21600 nM | 305 to 307 °C | > 21600 nM | > 21600 nM
Cc1ccc2c(NCc3ccc(NC(=O)C4CCN(Cc5ccccc5)CC4)cc3)nc(N3CCCC3)nc2c1 [Example 133, 1-benzyl-N-(4-{[(7-methyl-2-pyrrolidin-1-ylquinazolin-4-yl)amino]methyl}phenyl)piperidine-4-carboxamide] | > 9350 nM | 96 °C | 793 nM | 669 nM
CNc1nc(NCc2ccc(NC(=O)c3ccc(Cl)cc3)cc2)c2ccc(C)cc2n1 [Example 195, 4-chloro-N-[4-({[7-methyl-2-(methylamino)quinazolin-4-yl]amino}methyl)phenyl]benzamide] | > 1160 nM | 264 to 266 °C |  | 

More lines, now with the values ahead:

IC50 [1] | melting point | IC50 [2, 3] | IC50 [2, 4] | Compound
> 8670 nM | 126 to 128 °C | 706 nM | 967 nM | Cc1ccc2c(NCc3ccc(NC(=O)C4CCN(Cc5ccc(C(F)(F)F)cc5)CC4)cc3)nc(N(C)C)nc2c1 [Example 256, N-[4-({[2-(dimethylamino)-7-methylquinazolin-4-yl]amino}methyl)phenyl]-1-[4-(trifluoromethyl)benzyl]piperidine-4-carboxamide]
> 2470 nM | 112 to 115 °C | 292 nM | 408 nM | Cc1ccc2c(NCc3ccc(NC(=O)c4ccc(F)cc4)cc3)nc(NCCc3ccccn3)nc2c1 [Example 232, 4-fluoro-N-{4-[({7-methyl-2-[(2-pyridin-2-ylethyl)amino]quinazolin-4-yl}amino)methyl]phenyl}benzamide]
> 5780 nM | 233 to 236 °C |  |  | CNc1nc(NCc2ccc(NC(=O)c3ccc(Cl)nc3)cc2)c2c(C)cccc2n1 [Example 194, 6-chloro-N-[4-({[5-methyl-2-(methylamino)quinazolin-4-yl]amino}methyl)phenyl]nicotinamide]
> 6780 nM | 200 to 202 °C |  |  | Cc1ccc2c(NCc3ccc(NC(=O)c4ccc(F)cc4)cc3)nc(N3CCN[C@@H](C)C3)nc2c1 [Example 234, 4-fluoro-N-{4-[({7-methyl-2-[(3S)-3-methylpiperazin-1-yl]quinazolin-4-yl}amino)methyl]phenyl}benzamide]
> 2920 nM | 189 °C | 1140 nM | 1720 nM | O=C(Nc1ccc(CNc2nc(NC3CC3)nc3ccccc23)cc1)c1ccc(F)cc1 [Example 121, N-[4-({[2-(cyclopropylamino)quinazolin-4-yl]amino}methyl)phenyl]-4-fluorobenzamide]
> 2350 nM | 128 °C | 699 nM | 798 nM | CNc1nc(NCc2ccc(NC(=O)C3CCN(Cc4ccccc4)CC3)cc2)c2ccc(C)cc2n1 [Example 130, 1-benzyl-N-[4-({[7-methyl-2-(methylamino)quinazolin-4-yl]amino}methyl)phenyl]piperidine-4-carboxamide]
> 9790 nM | 139 °C | 649 nM | 1010 nM | CNc1nc(NCc2ccc(NC(=O)c3ccc(Cl)cc3)cc2)c2cc(Br)cc(C)c2n1 [Example 66, N-[4-({[6-bromo-8-methyl-2-(methylamino)quinazolin-4-yl]amino}methyl)phenyl]-4-chlorobenzamide]
> 3030 nM | 257 to 259 °C | 793 nM | 900 nM | CNc1nc(NCc2ccc(NC(=O)c3ccc(C)nc3)cc2)c2ccc(C)cc2n1 [Example 240, 6-methyl-N-[4-({[7-methyl-2-(methylamino)quinazolin-4-yl]amino}methyl)phenyl]nicotinamide]
> 2400 nM | 180 °C | 169 nM | 268 nM | C=Cc1ccc2c(NCc3ccc(NC(=O)C4CCN(Cc5ccccc5)CC4)cc3)nc(N(C)C)nc2c1 [Example 150, 1-benzyl-N-[4-({[2-(dimethylamino)-7-vinylquinazolin-4-yl]amino}methyl)phenyl]piperidine-4-carboxamide]
> 2820 nM | 170 to 174 °C |  |  | CCCNc1nc(NCc2ccc(NC(=O)c3ccc(F)cc3)cc2)c2ccc(C)cc2n1 [Example 231, 4-fluoro-N-[4-({[7-methyl-2-(propylamino)quinazolin-4-yl]amino}methyl)phenyl]benzamide]

Reference: patent publication US20090004185A1, “AMINO-SUBSTITUTED QUINAZOLINE DERIVATIVES AS INHIBITORS OF BETA-CATENIN/TCF-4 PATHWAY AND CANCER TREATMENT AGENTS” (WYETH, priority 2007, published 2009)
